Molecular target: MMP-8 (Homo sapiens, UniProt P22894)
Experiment: MMP-8 enzyme activity, quenched fluorigenic substrate, 96 well plate
Assay type: biochemical
Conditions: read-out: MMP-8 Ki app
Experimental: The MMP-8 data was determined according to Knight C. G. et al., Febs Lett, 296, 263-266 (1992), “A novel coumarin-labelled peptide for sensitive continuous assays of the matrix metalloproteinases” in the modification of K. U. Weithmann et al., Inflamm. Res. 46 (7), 246-252 (1997), “Effects of tiaprofenic acid on urinary pyridinium crosslinks in adjuvant arthritic rats: Comparison and doxycycline effects on human matrix metalloproteinases and cellular cytokine generation in vitro” as follows:
Enzyme activity of MMP was determined in 96 well titer plate format in a luminescence spectrometer (LS 50B, Perkin Elmer, Langen, FRG), using the quenched fluorigenic substrate 7-methoxycoumarin-4-yl) acetyl-pro-leu-gly-leu-3-(2′,4′-dinitrophenyl)-L-2,3-diaminopropionyl-ala-arg-NH2 (λex=328 nm, λem=393 nm), available from Bachem, Heidelberg, FRG. Each well contained: 70 μl buffer (0.1 mol/l tris/HCl, pH=7.5; 0.1 mol/l NaCl; 0.01 mol/l CaCl2,0.05% Brij 35™), 10 μl enzyme, and 10 μl drug in 10%DMSO. After preincubation for 15 min at room temperature the reaction was started by addition of 10 μl substrate (1 mmol/l in 10% DMSO). Initial velocity of enzymatic reaction was determined without drug (=100%) or, resp. with different drug concentrations.

MMP-8, sequence (P22894 101-467): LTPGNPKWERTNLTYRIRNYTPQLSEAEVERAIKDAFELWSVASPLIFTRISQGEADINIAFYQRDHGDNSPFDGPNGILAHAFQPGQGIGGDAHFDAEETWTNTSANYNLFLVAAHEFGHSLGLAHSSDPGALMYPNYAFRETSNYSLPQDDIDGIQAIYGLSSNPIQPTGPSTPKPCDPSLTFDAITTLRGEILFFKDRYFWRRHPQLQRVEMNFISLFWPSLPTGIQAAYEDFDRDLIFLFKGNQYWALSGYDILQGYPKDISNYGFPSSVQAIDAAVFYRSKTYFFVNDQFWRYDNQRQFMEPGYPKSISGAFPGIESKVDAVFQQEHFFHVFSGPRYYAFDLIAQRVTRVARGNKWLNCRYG

SMILES	Ki [µM]
CNC(=O)[C@@H](Cc1cccnc1)NC(=O)[C@@H]1[C@@H](Cc2ccccc2)CCN1C(=O)[C@@H](S)C(C)C [Compound 1e, (2S,3S)-3-Benzyl-1-((S)-2-mercapto-3-methyl-butanoyl)-pyrrolidine-2-carboxylic acid ((R)-1-methylcarbamoyl-2-pyridin-3-yl-ethyl)-amide]	> 10
CNC(=O)[C@@H](NC(=O)[C@@H]1[C@@H](Cc2ccccc2)CCN1C(=O)[C@@H](S)C(C)C)C(C)(C)C [Compound 1g, (2S,3S)-3-Benzyl-1-((S)-2-mercapto-3-methyl-butanoyl)-pyrrolidine-2-carboxylic acid ((S)-2,2-dimethyl-1-methylcarbamoyl-propyl)-amide]	> 10
CNC(=O)[C@H](Cc1ccc(O)cc1)NC(=O)[C@@H]1[C@@H](Cc2ccccc2)CCN1C(=O)[C@@H](S)C(C)C [Compound 1a, (2S,3S)-3-Benzyl-1-((S)-2-mercapto-3-methyl-butanoyl)-pyrrolidine-2-carboxylic acid [(S)-2-(4-hydroxy-phenyl)-1-methylcarbamoyl-ethyl]-amide]	> 10
CNC(=O)[C@H](Cc1ccc(O)cc1)NC(=O)[C@@H]1[C@H](Cc2ccccc2)CCN1C(=O)[C@@H](S)C(C)C [Compound 1b, (2S,3R)-3-Benzyl-1-((S)-2-mercapto-3-methyl-butanoyl)-pyrrolidine-2-carboxylic acid [(S)-2-(4-hydroxy-phenyl)-1-methylcarbamoyl-ethyl]-amide]	3

Results, then the compound that gave them:

Ki [µM]	SMILES
3	CNC(=O)[C@@H](NC(=O)[C@@H]1[C@H](Cc2ccccc2)CCN1C(=O)[C@@H](S)C(C)C)C(C)(C)C [Compound 1h, (2S,3R)-3-Benzyl-1-((S)-2-mercapto-3-methyl-butanoyl)-pyrrolidine-2-carboxylic acid ((S)-2,2-dimethyl-1-methylcarbamoyl-propyl)-amide]
9	CNC(=O)[C@H](Cc1cccnc1)NC(=O)[C@@H]1[C@@H](Cc2ccccc2)CCN1C(=O)[C@@H](S)C(C)C [Compound 1c, (2S,3S)-3-Benzyl-1-((S)-2-mercapto-3-methyl-butanoyl)-pyrrolidine-2-carboxylic acid ((S)-1-methylcarbamoyl-2-pyridin-3-yl-ethyl)-amide]
4	CNC(=O)[C@H](Cc1cccnc1)NC(=O)[C@@H]1[C@H](Cc2ccccc2)CCN1C(=O)[C@@H](S)C(C)C [Compound 1d, (2S,3R)-3-Benzyl-1-((S)-2-mercapto-3-methyl-butanoyl)-pyrrolidine-2-carboxylic acid ((S)-1-methylcarbamoyl-2-pyridin-3-yl-ethyl)-amide]
> 10	CNC(=O)[C@@H](Cc1cccnc1)NC(=O)[C@@H]1C(Cc2ccccc2)CCN1C(=O)[C@@H](S)C(C)C (stereo in doubt) [Compound 1f, (2S,3S)-3-Benzyl-1-((S)-2-mercapto-3-methyl-butanoyl)-pyrrolidine-2-carboxylic acid ((R)-1-methylcarbamoyl-2-pyridin-3-yl-ethyl)-amide]

— US6486193B2, “3-substituted pyrrolidines useful as inhibitors of matrix metalloproteinases” (Aventis Pharmaceuticals Inc., priority 1998, dated 2002)
